In publication PMC12281475, “Mediator Kinase Inhibitor Selectivity and Activity in Colorectal Cancer” (ACS Chemical Biology, 2025):

Test system: COLO205 cells
Test: Phospho-proteome profiling (CDK-motif antibody enrichment, LC-MS/MS)
Type: cell-based, human
Conditions: for CMPD 1/DMSO / MEAN MS SIGNAL CMPD 1 6 H: 6 H
Excerpt: We phospho-proteome profiled COLO205 cells to identify Mediator kinase substrates following chemical inhibition of Mediator kinase activity. Given the confirmed CDK8/19 selectivity of our compounds in binding and enzymatic activity assays, we employed a pool of antibodies selective for the proline-rich motifs phosphorylated by the CDK family to enrich potential CDK8/19 substrates for LC-MS/MS analysis.
Adherent COLO205 cells were lysed with a urea buffer, lysates were reduced with DTT, alkylated with iodoacetimide and digested with trypsin-tosylphenylalanyl chloromethyl ketone. Digested peptides were immunoprecipitated using a pool of motif antibodies from Cell Signaling Technologies (US) comprising: phospho-MAPK substrate (PXS*P or S*PXR/K, #2325, RRID:AB_331820), phospho-CDKs substrate ((K/H)-S*P, #2324; RRID:AB_2244779), phospho-PLK binding motif (ST*P, #5243; RRID:AB_10891778) and phospho-tPE motif (T*PE, #3004; RRID:AB_10890649)-of phospho-MAPK (2325), phospho-CDK (2324), phospho-PLK (5243) and phospho-tPE (C3004) motif-recognizing antibodies immobilized onto protein A/G beads. Immunoprecipitated peptides were analyzed using an LTQ-Orbitrap-Velos. Sequences were assigned to the MS/MS spectra and evaluated using SEQUEST 3G and SORCERER 2 (Sage-N Research v4.0, Milpitas). Quantitative data was evaluated and clustered in Spotfire Decision Site (www.spotfire.tibco.com) and normalized using quartile normalization. Functional annotation and pathway analysis used DAVID (https://david.ncifcrf.gov/). […]
Phospho-proteome analyses
Adherent COLO205 cells were washed with PBS and cells lysed using urea lysis buffer (9 M Urea, 20 mM HEPES, pH 8.0, 1 mM beta-glycerophosphate, 1 mM sodium vanadate, 2.5 mM sodium pyrophosphate) and stored at -80 °C prior to analysis. The supernatants were reduced with 100 mM DTT for 30 minutes at 55 °C, followed by alkylation with 50 mM iodoacetimide for 15 minutes at ambient temperature in the dark.
The samples were diluted in 20 mM HEPES, pH 8.0 and digested overnight with 10 ug/mL trypsin-tosylphenylalanyl chloromethyl ketone in 1 mM HCl. Digested peptides were acidified with 1% formic acid and then desalted over 360-mg SEP PAK C18 columns (Waters, UK). Peptides were eluted with 40% acetonitrile in 0.125% formic acid, dried under a vacuum and the lyophilised peptides used for immunoprecipitation.
A pool of motif antibodies from Cell Signaling Technologies (US) comprising: phospho-MAPK substrate (PXS*P or S*PXR/K, #2325, RRID:AB_331820), phospho-CDKs substrate ((K/H)S*P, #2324; RRID:AB_2244779), phospho-PLK binding motif (ST*P, […]
RRID:AB_10890649), were immobilised onto protein A/G beads overnight at 4 °C. The lyophilised peptides were resuspended in MOPS buffer (50 mM MOPS, pH 7.2, 10 mM KH2PO4, 50 mM NaCl) and centrifuged for 5 mins at 13,500 rpm in an Eppendorf benchtop microcentrifuge. The supernatants were incubated with the motif-bound beads for 2.5 hours at 4 °C . The beads were harvested by centrifugation at 4000 rpm in an Eppendorf benchtop microcentrifuge for 5 mins, washed with MOPS buffer twice and washed again 5 times with deionised water. The peptides were eluted off the beads using 0.125% formic acid, were desalted and dried under a vacuum. The lyophilised immunoprecipitated peptides were resuspended in 0.125% formic acid and separated on a capillary column packed with Magic C18 AQ reversed-phase resin.
Peptides were eluted using a 72-minute linear gradient of acetonitrile in 0.125% formic acid delivered at 280nL/min. Samples were analysed using an LTQ-Orbitrap-Velos.
MS Parameter Settings were: MS Run Time 96 min, MS1 Scan Range (300.0 – 1500.00), Top 20 MS/MS (Min Signal 500, Isolation Width 2.0, Normalized Coll.
Charge State Rejection Enabled, Charge State 1+ Rejected, Dynamic Exclusion Enabled, Repeat Count 1, Repeat Duration 35.0, Exclusion List Size 500, Exclusion Duration 40.0, Exclusion Mass Width Relative to Mass, Exclusion Mass Width 10ppm). […]

[1] = AHCTF1 peptide 1205/1240 - STlrSTplaSpspSpgrSpqr - 1225/1265
[2] = AHNAK peptide 5778 - hrSnSfSderefSgpsTpTglefeggevsleggk - 5811
[3] = AKNA peptide 429 - vpqefqTpeqatelvhqlqedyhr - 452
[4] = ANLN peptide 381 - cqehSkeSparsTphrTpiiTpntk - 405
[5] = ARHGAP19 peptide 443 - knpTpesvaigelk - 456
[6] = ARID4B peptide 922/1008 - kaefpssgsnsvlnTpptTpespssvtvtegsr - 954/1040
[7] = ATN1 peptide 158 - pyhppplfppSpqppdstpr - 177
[8] = BAP1 peptide 513 - sanptrpsSpvtshisk - 529
[9] = BCL11B peptide 367 - lrelagnSSTpppvSpgrgnpmhr - 390
[10] = CC2D1A peptide 200 - gpasTpTySpaptqpapr - 217
[11] = CDT1 peptide 72 - lsvdevsSpstpeapdipacpspgqk - 97
[12] = CDT1 peptide 72 - lsvdevsspsTpeapdipacpSpgqk - 97
[13] = CHAMP1 peptide 198 - lapvpspepqkpapvSpesvk - 219
[14] = CHD4 peptide 1530 - mSqpgSpSpkTpTpSTpgdTqpnTpapvppaedgik - 1565
[15] = CHD4 peptide 1531 - SqpgSpSpkTptpstpgdtqpntpapvppaedgik - 1565
[16] = CHD4 peptide 1540 - TpTpSTpgdtqpnTpapvppaedgik - 1565
[17] = CHD4 peptide 1540 - TptpStpgdtqpnTpapvppaedgikieenslk - 1572
[18] = ECT2 peptide 403 - krpSaehSlSigSlldiSnTpeSsinYgdtpk - 434
[19] = EEF1G peptide 379 - gqelafplSpdwqvdyesytwr - 100
[20] = EGR1 peptide 6 - aemqlmsplqisdpfgsfphSptmdnypk -34
[21] = EGR1 peptide 6 - aemqlmsplqisdpfgsfphspTmdnypk - 34
[22] = EPC2 peptide 343 - aealitsqqpTpetlpvink - 362

Cn1cc(-c2ccc(-c3cncc(Cl)c3N3CCC4(CCNC4=O)CC3)cc2)cn1 [CCT251545]
CMPD 1/DMSO [1]: 1.802 | MEAN MS SIGNAL CMPD 1 6 H [1]: 238204 | CMPD 1/DMSO [2]: 1.997 | MEAN MS SIGNAL CMPD 1 6 H [2]: 301575 | CMPD 1/DMSO [3]: 0.569 | MEAN MS SIGNAL CMPD 1 6 H [3]: 41850 | CMPD 1/DMSO [4]: 0.512 | MEAN MS SIGNAL CMPD 1 6 H [4]: 62532 | CMPD 1/DMSO [5]: 0.589 | MEAN MS SIGNAL CMPD 1 6 H [5]: 62950 | CMPD 1/DMSO [6]: 2.069 | MEAN MS SIGNAL CMPD 1 6 H [6]: 72000 | CMPD 1/DMSO [7]: 0.526 | MEAN MS SIGNAL CMPD 1 6 H [7]: 1231725 | CMPD 1/DMSO [8]: 1.826 | MEAN MS SIGNAL CMPD 1 6 H [8]: 26677 | CMPD 1/DMSO [9]: 1.888 | MEAN MS SIGNAL CMPD 1 6 H [9]: 33472 | CMPD 1/DMSO [10]: 0.625 | MEAN MS SIGNAL CMPD 1 6 H [10]: 70653 | CMPD 1/DMSO [11]: 0.368 | MEAN MS SIGNAL CMPD 1 6 H [11]: 55322 | CMPD 1/DMSO [12]: 0.429 | MEAN MS SIGNAL CMPD 1 6 H [12]: 15418 | CMPD 1/DMSO [13]: 2.031 | MEAN MS SIGNAL CMPD 1 6 H [13]: 849660 | CMPD 1/DMSO [14]: 0.456 | MEAN MS SIGNAL CMPD 1 6 H [14]: 51533 | CMPD 1/DMSO [15]: 0.310 | MEAN MS SIGNAL CMPD 1 6 H [15]: 35479 | CMPD 1/DMSO [16]: 0.193 | MEAN MS SIGNAL CMPD 1 6 H [16]: 31383 | CMPD 1/DMSO [17]: 0.000 | MEAN MS SIGNAL CMPD 1 6 H [17]: 0 | abundance of phospho-peptide corresponding to phospho-STAT1 SER727 (COLO205, 350 nM, 6 h): decrease in abundance | phospho-peptides whose label-free intensities remained unchanged (COLO205, 350 nM, 6 h): 95% | phosphorylation at MED13 THR565, MED14 SER1112 and MED26 SER314 (COLO205, 350 nM, 6 h): reducing phosphorylation | phosphorylation of POLR2A CTD phospho-peptides (COLO205, 350 nM, 6 h): no evidence of decreased phosphorylation | number of phospho-peptides consistently decreased by > 1.5-fold (COLO205, 350 nM, 6 h, both independent biological repeats, 2,734 phospho-peptides identified): 123 | number of individual proteins represented by the decreased phospho-peptides (COLO205, 350 nM, 6 h, > 1.5-fold decrease): 95 | CMPD 1/DMSO [18]: 0.501 | MEAN MS SIGNAL CMPD 1 6 H [18]: 22710 | CMPD 1/DMSO [19]: 0.521 | MEAN MS SIGNAL CMPD 1 6 H [19]: 184020 | CMPD 1/DMSO [20]: 0.400 | MEAN MS SIGNAL CMPD 1 6 H [20]: 23807 | CMPD 1/DMSO [21]: 0.452 | MEAN MS SIGNAL CMPD 1 6 H [21]: 16379 | CMPD 1/DMSO [22]: 0.365 | MEAN MS SIGNAL CMPD 1 6 H [22]: 24823 | CMPD 1/DMSO (EZH2 peptide 46 - grlpnnssrpstpTinvlesk - 376): 1.970
